Target: T1, NBD1 (Homo sapiens, UniProt P13569)
T1 construct: Purified recombinant NBD1 was produced using previously described methods; made in house
Assay: Aggregation analysis using differential static light scattering (DSLS), thermal stability of NBD1 (ΔTagg)
Assay type: binding
Conditions: ΔTagg versus DMSO control, NBD1 0.2 mg/ml
Outline: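 Purified recombinant NBD1 at 0.2 mg/ml in 50 mM Tris-HCl, 150 mM NaCl, 5 mM MgCl2, 2 mM ATP, 2 mM DTT, pH 7.6, 1% glycerol, with compound, heated 1° C./min to 70° C. under light-scattering monitoring. Tagg taken at curve inflection; ΔTagg is compound Tagg minus mean DMSO-control Tagg, binned A (≤5° C.), B (>5-≤10° C.), C (>10-≤25° C.).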

T1 sequence (P13569 423-646 limits assumed): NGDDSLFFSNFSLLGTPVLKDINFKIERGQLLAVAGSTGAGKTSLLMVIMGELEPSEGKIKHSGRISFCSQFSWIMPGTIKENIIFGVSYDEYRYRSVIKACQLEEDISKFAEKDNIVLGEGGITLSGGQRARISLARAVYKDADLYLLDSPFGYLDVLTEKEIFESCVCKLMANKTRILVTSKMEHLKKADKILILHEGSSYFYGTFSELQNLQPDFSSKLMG

Compound | DSLS 3D (100 μM ΔT)
C[C@@H](Cc1cccc([C@@]2(C)CCCC(C)(C)CS(=O)(=O)CCc3c(c(F)c(F)c4[nH]ccc34)S(=O)(=O)c3ccnc(c3)-c3nc2nn3C)c1)C(=O)O [Compound 346, (2S)-3-[3-[(6R)-21,22-Difluoro-3,6,10,10-tetramethyl-12,12,24,24-tetraoxo-12λ6,24λ6-dithia-3,4,19,28,30-pentazapentacyclo[23.3.1.12,5.015,23.016,20]triaconta-1(29),2(30),4,15,17,20,22,25,27-nonaen-6-yl]phenyl]-2-methyl-propanoic Acid] | B (a value above 5 °C and less than or equal to 10 °C is marked “B”)
C[C@@H](Cc1cccc([C@@]2(C)CCCC(C)(C)CS(=O)(=O)CCc3c(c(F)cc4[nH]ccc34)S(=O)(=O)c3ccnc(c3)-c3nc2nn3C)c1)C(=O)O [Compound 347, (2S)-3-[3-[(6R)-22-Fluoro-3,6,10,10-tetramethyl-12,12,24,24-tetraoxo-12λ6,24λ6-dithia-3,4,19,28,30-pentazapentacyclo[23.3.1.12,5.015,23.016,20]triaconta-1(29),2(30),4,15,17,20,22,25,27-nonaen-6-yl]phenyl]-2-methyl-propanoic Acid] | B (a value above 5 °C and less than or equal to 10 °C is marked “B”)
Cn1nc2nc1-c1cc(ccc1F)S(=O)(=O)c1c(F)cc3[nH]ccc3c1CCS(=O)(=O)CC(C)(C)CCC[C@]2(C)c1cccc(CC(C)(C)C(=O)O)c1 [Compound 348A, 3-[3-[(6R)-22,28-Difluoro-3,6,10,10-tetramethyl-12,12,24,24-tetraoxo-12λ6,24λ6-dithia-3,4,19,30-tetrazapentacyclo[23.3.1.12,5.015,23.016,20]triaconta-1(29),2(30),4,15,17,20,22,25,27-nonaen-6-yl]phenyl]-2,2-dimethyl-propanoic Acid] | A (an ΔTagg value less than or equal to 5 °C is marked “A”)
Cn1nc2nc1-c1cc(ccc1F)S(=O)(=O)c1c(F)cc3[nH]cc(Cl)c3c1CCS(=O)(=O)CC(C)(C)CCC[C@]2(C)c1cccc(CC(C)(C)C(=O)O)c1 [Compound 348B, 3-[3-[(6R)-17-Chloro-22,28-difluoro-3,6,10,10-tetramethyl-12,12,24,24-tetraoxo-12λ6,24λ6-dithia-3,4,19,30-tetrazapentacyclo[23.3.1.12,5.015,23.016,20]triaconta-1(29),2(30),4,15,17,20,22,25,27-nonaen-6-yl]phenyl]-2,2-dimethyl-propanoic Acid] | A (an ΔTagg value less than or equal to 5 °C is marked “A”)
C[C@H](Cc1cccc([C@@]2(C)CCCC(C)(C)CS(=O)(=O)CCc3c(c(F)cc4[nH]ccc34)S(=O)(=O)c3ccnc(c3)-c3nc2nn3C)c1)C(=O)O [Compound 349, (2R)-3-[3-[(6R)-22-Fluoro-3,6,10,10-tetramethyl-12,12,24,24-tetraoxo-12λ6,24λ6-dithia-3,4,19,28,30-pentazapentacyclo[23.3.1.12,5.015,23.016,20]triaconta-1(29),2(30),4,15,17,20,22,25,27-nonaen-6-yl]phenyl]-2-methyl-propanoic Acid] | B (a value above 5 °C and less than or equal to 10 °C is marked “B”)
Cn1nc2nc1-c1cc(ccn1)S(=O)(=O)c1c(F)cc3[nH]ccc3c1CCS(=O)(=O)CC(C)(C)CCC[C@]2(C)c1cccc(CC(C)(C)C(=O)O)c1 [Compound 350, 3-[3-[(6R)-22-Fluoro-3,6,10,10-tetramethyl-12,12,24,24-tetraoxo-12λ6,24λ6-dithia-3,4,19,28,30-pentazapentacyclo[23.3.1.12,5.015,23.016,20]triaconta-1(29),2(30),4,15,17,20,22,25,27-nonaen-6-yl]phenyl]-2,2-dimethyl-propanoic Acid] | A (an ΔTagg value less than or equal to 5 °C is marked “A”)
C[C@@H](Cc1cccc([C@@]2(C)CCCC(C)(C)CS(=O)(=O)CCc3c(c(F)c(F)c4[nH]ccc34)S(=O)(=O)c3ccc(F)c(c3)-c3nc2nn3C)c1)C(=O)O [Compound 351, (2S)-2-Methyl-3-[3-[(6R)-21,22,28-trifluoro-3,6,10,10-tetramethyl-12,12,24,24-tetraoxo-12λ6,24λ6-dithia-3,4,19,30-tetrazapentacyclo[23.3.1.12,5.015,23.016,20]triaconta-1(29),2(30),4,15,17,20,22,25,27-nonaen-6-yl]phenyl]propanoic Acid] | B (a value above 5 °C and less than or equal to 10 °C is marked “B”)
Cn1nc2nc1-c1cc(ccn1)S(=O)(=O)c1c(F)c(F)c3[nH]ccc3c1CCS(=O)(=O)CC(C)(C)CCC[C@]2(C)c1cccc(CC(C)(C)C(=O)O)c1 [Compound 352, 3-[3-[(6R)-21,22-Difluoro-3,6,10,10-tetramethyl-12,12,24,24-tetraoxo-12λ6,24λ6-dithia-3,4,19,28,30-pentazapentacyclo[23.3.1.12,5.015,23.016,20]triaconta-1(29),2(30),4,15,17,20,22,25,27-nonaen-6-yl]phenyl]-2,2-dimethyl-propanoic Acid] | A (an ΔTagg value less than or equal to 5 °C is marked “A”)
C[C@@H](Cc1cccc([C@@]2(C)CCCC(C)(C)CS(=O)(=O)CCc3c[nH]c4c(F)c(F)c(cc34)Oc3ccc(F)c(c3)-c3nc2nn3C)c1)C(=O)O [Compound 353, (2S)-2-Methyl-3-[3-[(12R)-6,25,26-trifluoro-9,12,16,16-tetramethyl-18,18-dioxo-2-oxa-18λ6-thia-9,10,23,29-tetrazapentacyclo[19.5.2.13,7.18,11.024,28]triaconta-1(26),3,5,7(30),8(29),10,21,24,27-nonaen-12-yl]phenyl]propanoic Acid] | A (an ΔTagg value less than or equal to 5 °C is marked “A”)
COC(=O)[C@@H](C)Cc1cccc([C@@]2(C)CCCC(C)(C)CS(=O)(=O)CCc3c[nH]c4cc(F)c(cc34)Sc3ccc(F)c(c3)-c3nc2nn3C)c1 [Compound 354, Methyl (2S)-3-[3-[(12R)-6,26-difluoro-9,12,16,16-tetramethyl-18,18-dioxo-2,18λ6-dithia-9,10,23,29-tetrazapentacyclo[19.5.2.13,7.18,11.024,28]triaconta-1(26),3,5,7(30),8(29),10,21,24,27-nonaen-12-yl]phenyl]-2-methyl-propanoate] | A (an ΔTagg value less than or equal to 5 °C is marked “A”)
C[C@@H](Cc1cccc([C@@]2(C)CCCC(C)(C)CS(=O)(=O)CCc3c[nH]c4cc(F)c(cc34)[S+]([O-])c3ccc(F)c(c3)-c3nc2nn3C)c1)C(=O)O (stereo partly drawn) [Compound 355] | A (an ΔTagg value less than or equal to 5 °C is marked “A”)
C[C@H](Cc1cccc([C@@]2(C)CCCC(C)(C)CS(=O)(=O)CCc3c(ncc4[nH]ccc34)Oc3ccc(F)c(c3)-c3nc2nn3C)c1)C(=O)O [Compound 356, (2R)-3-[3-[(6R)-28-Fluoro-3,6,10,10-tetramethyl-12,12-dioxo-24-oxa-12λ6-thia-3,4,19,22,30-pentazapentacyclo[23.3.1.12,5.015,23.016,20]triaconta-1(29),2(30),4,15,17,20,22,25,27-nonaen-6-yl]phenyl]-2-methyl-propanoic acid] | A (an ΔTagg value less than or equal to 5 °C is marked “A”)

Reference: patent US12649750B2, “Macrocyclic compounds, compositions, and methods of using thereof” (Sionna Therapeutics Inc., priority 2022, dated 2026)
